This passage reports IC50 results from patent publication US8618285B2, “Triazole derivatives” (Merck Patent GmbH, priority 2005, dated 2013).

For the assay, the target named is T1, Recombinant human HSP90α (Homo sapiens, UniProt P07900).
T1 construct: host or cells: E. coli
The assay is described as follows: radioligand filter binding test, competitive inhibition of [3H]17AAG binding to HSP90. The note with it: [3H]17AAG 0.08 μM, HSP90 1.5 μg/assay, 22° C., 30 min. The text has this: The binding of geldanamycin or 17-allylamino-17-demethoxygeldanamycin (17AAG) to HSP90 and competitive inhibition thereof can be utilised in order to determine the inhibitory activity of the compounds according to the invention (Carreras et al. 2003, Chiosis et al. 2002).
In the specific case, a radioligand filter binding test is used. The radio-ligand used here is tritium-labelled 17-allylaminogeldanamycin, [3H]17AAG. This filter binding test allows a targeted search for inhibitors which interfere with the ATP binding site. Material
Recombinant human HSP90α (E. coli expressed, 95% purity); [3H]17AAG (17-allylaminogeldanamycin, [allylamino-2,3-^3H. Specific activity: 1.11×10^12 Bq/mmol (Moravek, MT-1717);
HEPES filter buffer (50 mM HEPES, pH 7.0, 5 mM MgCl2, BSA 0.01%) Multiscreen FB (1 μm) filter plate (Millipore, MAFBNOB 50).
The 96-well microtitre filter plates are firstly irrigated and coated with 0.1% of polyethylenimine.
The test is carried out under the following conditions: • Reaction temperature 22° C. • Reaction time: 30 min., shaking at 800 rpm • Test volume: 50 μl • Final concentrations: • 50 mM HEPES HCl, pH 7.0, 5 mM MgCl2, 0.01% (w/v) BSA • HSP90: 1.5 μg/assay • [3H]17AAG: 0.08 μM.
At the end of the reaction, the supernatant in the filter plate is removed by suction with the aid of a vacuum manifold (Multiscreen Separation System, Millipore), and the filter is washed twice.
The filter plates are then measured in a beta counter (Microbeta, Wallac) with scintillator (Microscint 20, Packard).
“% of control” is determined from the “counts per minutes” values and the IC50 value of a compound is calculated therefrom.
The term IC50 denotes the point on the concentration scale where inhibition reaches its midpoint. For the compound `CCCCN(C)S(=O)(=O)c1cc(-c2nnc(O)n2-c2ccccc2Cl)c(O)cc1O` [A26, 5-[2,4-dihydroxy-5-(N-butyl-N-methylsulfamoyl)phenyl]-4-(2-chloro-phenyl)-3-hydroxy-4H-1,2,4-triazole], the IC50 came to 120 nM. Regarding `CN(Cc1ccccc1)S(=O)(=O)c1cc(-c2nnc(O)n2-c2ccccc2Cl)c(O)cc1O` [A32, 5-[2,4-dihydroxy-5-(N-benzyl-N-methylsulfamoyl)phenyl]-4-(2-chloro-phenyl)-3-hydroxy-4H-1,2,4-triazole], the IC50 came to 140 nM.

For `CCCN(C)S(=O)(=O)c1cc(-c2nnc(O)n2-c2cccc(F)c2)c(O)cc1O` [A39, 5-[2,4-dihydroxy-5-(N-propyl-N-methylsulfamoyl)phenyl]-4-(3-fluoro-phenyl)-3-hydroxy-4H-1,2,4-triazole], the IC50 amounted to 180 nM. For the compound `CCCN(C)S(=O)(=O)c1cc(-c2nnc(O)n2-c2ccccc2C)c(O)cc1O` [A40, 5-[2,4-dihydroxy-5-(N-propyl-N-methylsulfamoyl)phenyl]-4-(2-methyl-phenyl)-3-hydroxy-4H-1,2,4-triazole], the IC50 is 140 nM. For the compound `CCCN(C)S(=O)(=O)c1cc(-c2nnc(O)n2-c2ccccc2Cl)c(O)cc1O` [A28, 5-[2,4-dihydroxy-5-(N-propyl-N-methylsulfamoyl)phenyl]-4-(2-chloro-phenyl)-3-hydroxy-4H-1,2,4-triazole], the IC50 was determined as 160 nM.

`CCCN(C)S(=O)(=O)c1cc(-c2nnc(O)n2-c2cccc(Cl)c2)c(O)cc1O` [A38, 5-[2,4-dihydroxy-5-(N-propyl-N-methylsulfamoyl)phenyl]-4-(3-chloro-phenyl)-3-hydroxy-4H-1,2,4-triazole]: the IC50 was found to be 330 nM. Consider `CCCN(C)S(=O)(=O)c1cc(-c2nnc(O)n2-c2ccccc2CC)c(O)cc1O` [A34, 5-[2,4-dihydroxy-5-(N-propyl-N-methylsulfamoyl)phenyl]-4-(2-ethyl-phenyl)-3-hydroxy-4H-1,2,4-triazole], for which the IC50 was determined as 80 nM.
